One experiment has as its target stromelysin (Homo sapiens, UniProt P08254). Kind of experiment: Inhibition of stromelysin: hydrolysis of substance P, semicontinuous HPLC-based assay. It counts as biochemical. As to conditions: for IC50: substrate substance P.
For experiment [1], the target named is T1, human rheumatoid synovial collagenase (Homo sapiens, UniProt P03956).
T1 sequence (P03956 100-469): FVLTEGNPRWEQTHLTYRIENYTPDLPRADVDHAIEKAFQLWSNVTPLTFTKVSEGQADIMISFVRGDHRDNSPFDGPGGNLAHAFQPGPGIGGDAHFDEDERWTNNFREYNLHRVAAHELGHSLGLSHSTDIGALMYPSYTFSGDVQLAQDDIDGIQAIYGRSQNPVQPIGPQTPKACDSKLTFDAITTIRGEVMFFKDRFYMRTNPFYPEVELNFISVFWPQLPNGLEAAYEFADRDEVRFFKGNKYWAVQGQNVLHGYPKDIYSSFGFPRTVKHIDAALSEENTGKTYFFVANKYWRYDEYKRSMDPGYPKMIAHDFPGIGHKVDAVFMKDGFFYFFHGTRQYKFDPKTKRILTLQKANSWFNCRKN
The settings on record: cited from earlier work.

For experiment [2], the target named is rabbit bone proteoglycanase (Oryctolagus cuniculus, UniProt P28863). The settings on record: cited from earlier work.
Sequence of rabbit bone proteoglycanase (P28863 101-478): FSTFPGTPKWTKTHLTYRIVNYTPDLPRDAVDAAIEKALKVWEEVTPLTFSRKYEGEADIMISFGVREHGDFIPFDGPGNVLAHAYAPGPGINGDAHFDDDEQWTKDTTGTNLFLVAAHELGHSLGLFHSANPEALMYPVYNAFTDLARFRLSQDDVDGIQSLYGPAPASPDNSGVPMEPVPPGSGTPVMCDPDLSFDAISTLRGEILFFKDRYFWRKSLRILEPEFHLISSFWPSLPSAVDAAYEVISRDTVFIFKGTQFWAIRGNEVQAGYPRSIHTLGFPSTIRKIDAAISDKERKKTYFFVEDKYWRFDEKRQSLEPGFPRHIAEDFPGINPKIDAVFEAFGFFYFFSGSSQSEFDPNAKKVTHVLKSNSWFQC
Where [3] appears, read: higher Rf isomer (diastereomer), read-out: IC50 ± S.E. Higher Rf isomer.
The mark [4] stands for this setting: lower Rf isomer (diastereomer), read-out: IC50 ± S.E. Lower Rf isomer.

Read-outs that look alike come from different tables or passages of the source.

Sequence of stromelysin (P08254 100-477): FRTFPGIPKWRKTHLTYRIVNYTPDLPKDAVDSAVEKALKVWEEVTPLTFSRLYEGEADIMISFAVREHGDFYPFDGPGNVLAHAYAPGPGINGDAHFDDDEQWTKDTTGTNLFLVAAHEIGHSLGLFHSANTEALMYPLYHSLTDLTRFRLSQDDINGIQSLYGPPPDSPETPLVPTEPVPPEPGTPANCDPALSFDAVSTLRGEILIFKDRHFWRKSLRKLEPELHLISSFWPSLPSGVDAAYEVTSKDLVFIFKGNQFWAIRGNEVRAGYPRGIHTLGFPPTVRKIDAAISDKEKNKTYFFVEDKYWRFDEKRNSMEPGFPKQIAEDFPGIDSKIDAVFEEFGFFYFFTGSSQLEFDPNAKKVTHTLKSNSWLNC

With `CC(C)C[C@H](NC(=O)C(CS)CCc1ccccc1)C(=O)Nc1ccccc1` (stereo partly drawn) [Compound 1b, N-(2-Thiomethyl-4-phenylbutanoyl)-(L)-leucine, N-phenylamide], the values for the IC50 on stromelysin (setting [3]) and on stromelysin (setting [4]) were 1600 ± 500 nM and 490 ± 100 nM, respectively. `CNC(=O)[C@H](Cc1ccc(OC)cc1)NC(=O)[C@H](CC(C)C)NC(CCNC(=O)OCc1ccccc1)C(=O)O` (stereo partly drawn) [N-[3-(benzyloxycarbonyl)amino-1-carboxy-n-propyl]-L-leucyl-O-methyl-L-tyrosine, N-methylamide]: the results for the half-maximal inhibitory concentration (IC50) in experiment [1] and in experiment [2] were 800 nM and 500 nM, respectively. For the compound `NC(=O)[C@H](Cc1ccccc1)NC(=O)C(CS)CCc1ccccc1` (stereo partly drawn) [Compound 1e, N-(2-Thiomethyl-4-phenylbutanoyl)-(L)-phenylalaninamide], the results for the IC50 on stromelysin (setting [3]) and on stromelysin (setting [4]) were 3100 ± 500 nM and 1900 ± 600 nM, respectively. Take `CC(C)C[C@H](NC(=O)C(CS)CCc1ccccc1)C(N)=O` (stereo partly drawn) [Compound 1a, N-(2-Thiomethyl-4-phenylbutanoyl)-(L)-leucinamide]: the half-maximal inhibitory concentration (IC50) came to 3300 ± 400 nM on stromelysin (setting [3]) and 960 ± 100 nM on stromelysin (setting [4]). For `CC(C)C[C@H](NC(=O)C(CS)CCc1ccccc1)C(=O)NCc1ccccc1` (stereo partly drawn) [Compound 1c, N-(2-Thiomethyl-4-phenylbutanoyl)-(L)-leucine, N-benzylamide], the IC50 on stromelysin (setting [3]) came to 7300 ± 3300 nM; on stromelysin (setting [4]) it was 2500 ± 1200 nM.

Regarding `O=C(N[C@@H](Cc1ccccc1)C(=O)NCc1ccccc1)C(CS)CCc1ccccc1` (stereo partly drawn) [Compound 1g, N-(2-Thiomethyl-4-phenylbutanoyl)-(L)-phenylalanine, N-benzylamide], the “% inh. Higher Rf isomer” value at stromelysin (higher Rf isomer, @ 1.4 μM) is 63 % inh. For the same compound, on stromelysin (lower Rf isomer, @ 3.3 μM), the “% inh. Lower Rf isomer” value came to 98 % inh. In the case of `O=C(O)CCNC(=O)[C@H](Cc1ccccc1)NC(=O)C(CS)CCc1ccccc1` (stereo partly drawn) [Compound 1h, N-(2-Thiomethyl-4-phenylbutanoyl)-(L)-phenylalanine-β-alanine], the half-maximal inhibitory concentration (IC50) at stromelysin (setting [3]) was 4100 ± 350 nM.

As for `O=C(N[C@@H](Cc1ccccc1)C(=O)Nc1ccccc1)C(CS)CCc1ccccc1` (stereo partly drawn) [Compound 1f, N-(2-Thiomethyl-4-phenylbutanoyl)-(L)-phenylalanine, N-phenylamide], the IC50 at stromelysin (setting [3]) amounted to 1100 ± 300 nM; on stromelysin (setting [4]), 2200 ± 800 nM.

Usually IC50 stands for the concentration needed to halve the response being measured.

Source of the values: patent US5629343A, “N-(mercaptoacyl) peptidyl derivatives as antidegenerative agents” (Merck & Co., Inc., priority 1995, dated 1997).
